{"source": "paper PMC4900628", "about": "“Critical Evaluation of P2X7 Receptor Antagonists in Selected Seizure Models” (PLoS ONE, 2016)", "tested_on": "PTZ-induced generalized clonic seizures", "test": "Pentylenetetrazol seizure threshold test (PTZ-T)", "assay_type": "in vivo", "settings": "for Cases of death (within 30 min) / Latency to the first gen. Clonus / Latency to the first gen. clonus (% of control) / latency to the onset of the first clonic seizures at higher doses / Latency to the first gen. Clonus (% control): mice; for Cases of death (within 30 min): n=12; for Latency to the first gen. Clonus: mean ± SEM; for latency to the onset of the first clonic seizures at higher doses: compounds alone, PTZ 87 mg/kg s.c.", "experimental": "Unrestrained mice, placed in separate full-view Plexiglas cages, were injected with the convulsant drug PTZ, a non-competitive GABAA receptor antagonist, at a dose of 87 mg/kg s.c. in the neck and the appearance of the first generalized clonus (repeated clonic seizures of the fore- and hindlimbs lasting ≥3 s with an accompanying loss of righting reflex) was recorded during individual observation for 30 min (see [69]). […] Group sizes of 12 mice were used in all experiments. Control groups, which received vehicle, were tested together with the compound-treated group on the same experimental day. The number of animals in the group with a generalized clonic seizure and the latency time to its onset were analysed for statistical significance. In the absence of seizures within 30 min, the latency was taken as 1800 s.\nFor the seizure tests (MES-T, PTZ-T, PTZ-kindling), BBG and TIIAS was dissolved in polyethylene glycol (PEG BioUltra, 400, Sigma-Aldrich), diluted to 20% with aqua (aqua ad iniectabilia, Braun, Melsungen, Germany). AFC was solubilized in ≥97% N,N-dimethylacetamide (DMA, Sigma-Aldrich), vortexed and diluted with 45% 2-hydroxypropyl-ß-cyclodextrin (ß-CD, Sigma-Aldrich) (final ratio of the vehicle 1:9). JNJ-47965567 was solubilized in two equivalents of 1N HCl, vortexed and sonicated (until the compound was mostly diluted) and then 30% of sulfobutylether-ß-cyclodextrin (SBE-ß-CD, Toronto Res. Chemicals, Toronto, Canada) was slowly added. The pH was adjusted with 1N NaOH (similar amount of NaOH as HCl), all with continuous stirring. PTZ was dissolved in 0.9% NaCl-solution, carbamazepine, ethosuximide and Ca-valproate were administered in a 2% (w/v) suspension of hydroxyethylcellulose. The drug solutions or suspensions were prepared immediately before use; all doses refer to the salts. Animals in the control group received equivalent volumes of the vehicle (in mice always 10 ml/kg, in rats 1 ml/kg [JNJ], 3 ml/kg [AFC] or 4 ml/kg [BBG, TIIAS], depending on the solubility of the different compounds). Doses and peak time effects were selected on the basis of effective doses from corresponding in vivo studies in the literature: BBG (e.g.), tanshinone IIA (e.g.) and from manufacturer’s experimental data: AFC, JNJ (see, [80]).\nData were analysed using SigmaPlot (vers. 12.0, Systat Software, Erkrath, Germany) and SPSS (IBM SPSS Statistics 20, Ehningen, Germany), respectively. Results are expressed as mean ± SEM. In the fluorometric Ca^2+ assays, concentration-response curves were fitted by using a 4-parameter logistic function (Hill slope, Emin, Emax, IC50). […] In the MES-T, the current intensity inducing tonic hindlimb extensions in 50% of the mice (CC50 values with confidence limits for 95% probability) and the statistical significance was calculated using Probit analysis (SPSS). In the case of multiple comparisons between different groups α-correction was performed so that only differences with a P value of < 0.01 were considered significant. In the PTZ-T, the number of animals in the group with clonic seizures and the latency time were analysed using Fisher's exact probability test and the Mann-Whitney rank sum test, respectively. For multiple comparisons of the latency time a one-way ANOVA with the Holm-Sidak post hoc test was used. The influence of AFC on the plasma and brain concentrations of the antiepileptic drugs was statistical compared using the same procedure. In the PTZ-kindling model, the mean seizure stage within a group was calculated in relation to the number of PTZ-injections. Statistical comparison between vehicle- and compound-treated groups in this model was performed with two-way repeated measures ANOVA, followed by the Holm-Sidak post hoc test. The mean number of PTZ-injections needed to produce the first generalized seizure (≥ stage 3 convulsions) in the vehicle- versus compound-treated groups was statistically compared using a Mann-Whitney rank sum test.", "key": {"[1]": {"settings": "30 mg/kg i.p. 45 min before PTZ 87 mg/kg s.c."}, "[2]": {"settings": "series JNJ-47965567 15 mg/kg and/or ethosuximide 100 mg/kg i.p. 30 min before PTZ 87 mg/kg s.c."}, "[3]": {"settings": "series JNJ-47965567 30 mg/kg and/or ethosuximide 100 mg/kg i.p. 30 min before PTZ 87 mg/kg s.c."}, "[4]": {"settings": "series AFC-5128 25 mg/kg and/or ethosuximide 100 mg/kg, all i.p. 30 min before PTZ 87 mg/kg s.c."}, "[5]": {"settings": "series AFC-5128 50 mg/kg and/or ethosuximide 100 mg/kg, all i.p. 30 min before PTZ 87 mg/kg s.c."}, "[6]": {"settings": "series JNJ-47965567 15 mg/kg and/or ethosuximide 100 mg/kg i.p. 30 min before PTZ, control 4.74 ± 0.64 min"}, "[7]": {"settings": "series JNJ-47965567 15 mg/kg and/or ethosuximide 100 mg/kg, all i.p. 30 min before PTZ 87 mg/kg s.c."}, "[8]": {"settings": "series JNJ-47965567 30 mg/kg and/or ethosuximide 100 mg/kg i.p. 30 min before PTZ, control 6.14 ± 1.34 min"}, "[9]": {"settings": "series JNJ-47965567 30 mg/kg and/or ethosuximide 100 mg/kg, all i.p. 30 min before PTZ 87 mg/kg s.c."}, "[10]": {"settings": "50 mg/kg i.p. 45 min before PTZ 87 mg/kg s.c."}, "[11]": {"settings": "15 mg/kg i.p. 30 min before PTZ 87 mg/kg s.c."}, "[12]": {"settings": "30 mg/kg i.p. 30 min before PTZ 87 mg/kg s.c."}}}
{"smiles": "Cc1c(S(=O)(=O)[O-])oc2c1C(=O)C(=O)c1c-2ccc2c1CCCC2(C)C.[Na+]", "note": "[Tanshinone TIIAS, tanshinone IIS sulfonic sodium]", "values": [{"measurement": "# of mice/ with seizure", "setting": "[1]", "result": "12/11"}, {"measurement": "Cases of death (within 30 min)", "setting": "[1]", "result": 0}, {"measurement": "Latency to the first gen. Clonus", "setting": "[1]", "result": "10.08 ± 2.64", "unit": "min"}, {"measurement": "Latency to the first gen. clonus (% of control)", "setting": "30 mg/kg i.p. 45 min before PTZ 87 mg/kg s.c., vehicle 5.00 ± 1.04 min", "result": "201.6 ± 52.8", "unit": "%"}, {"measurement": "latency to the onset of the first clonic seizures at higher doses", "result": "tended to increase the latency"}]}
{"smiles": "CCC1(C)CC(=O)NC1=O", "note": "(stereo not shown) [Ethosuximide, ethosuximide]", "values": [{"measurement": "Cases of death (within 30 min)", "setting": "series AFC-5128 25 mg/kg and/or ethosuximide 100 mg/kg i.p. 30 min before PTZ 87 mg/kg s.c.", "result": 1}, {"measurement": "Cases of death (within 30 min)", "setting": "series AFC-5128 50 mg/kg and/or ethosuximide 100 mg/kg i.p. 30 min before PTZ 87 mg/kg s.c.", "result": 1}, {"measurement": "Cases of death (within 30 min)", "setting": "[2]", "result": 0}, {"measurement": "Cases of death (within 30 min)", "setting": "[3]", "result": 1}, {"measurement": "Latency to the first gen. Clonus (% control)", "setting": "series AFC-5128 25 mg/kg and/or ethosuximide 100 mg/kg i.p. 30 min before PTZ, control 4.53 ± 0.56 min", "result": "312.6 ± 65.8", "unit": "%"}, {"measurement": "Latency to the first gen. Clonus", "setting": "[4]", "result": "14.16 ± 2.98", "unit": "min"}, {"measurement": "Latency to the first gen. Clonus (% control)", "setting": "series AFC-5128 50 mg/kg and/or ethosuximide 100 mg/kg i.p. 30 min before PTZ, control 10.83 ± 2.67 min", "result": "200.6 ± 27.0", "unit": "%"}, {"measurement": "Latency to the first gen. Clonus", "setting": "[5]", "result": "21.72 ± 3.03", "unit": "min"}, {"measurement": "Latency to the first gen. Clonus (% control)", "setting": "[6]", "result": "244.3 ± 75.3", "unit": "%"}, {"measurement": "Latency to the first gen. Clonus", "setting": "[7]", "result": "11.58 ± 3.57", "unit": "min"}, {"measurement": "Latency to the first gen. Clonus (% control)", "setting": "[8]", "result": "209.0 ± 51.1", "unit": "%"}, {"measurement": "Latency to the first gen. Clonus", "setting": "[9]", "result": "12.83 ± 3.14", "unit": "min"}, {"measurement": "# of mice/ with seizures", "setting": "[4]", "result": "12/8^+"}, {"measurement": "# of mice/ with seizures", "setting": "[5]", "result": "12/7^+"}, {"measurement": "# of mice/ with seizures", "setting": "[7]", "result": "12/8^+"}, {"measurement": "# of mice/ with seizures", "setting": "[9]", "result": "12/8^+"}]}
{"smiles": "CCOc1ccc(Nc2ccc(/C(=C3C=C/C(=[N+](/CC)Cc4cccc(S(=O)(=O)[O-])c4)C=C/3C)c3ccc(N(CC)Cc4cccc(S(=O)(=O)O)c4)cc3C)cc2)cc1", "note": "[Brilliant Blue G]", "values": [{"measurement": "# of mice/ with seizure", "setting": "[10]", "result": "12/10"}, {"measurement": "Cases of death (within 30 min)", "setting": "[10]", "result": 2}, {"measurement": "Latency to the first gen. Clonus", "setting": "50 mg/kg i.p. 45 min before PTZ 87 mg/kg s.c., P < 0.05", "result": "13.91 ± 2.38", "unit": "min"}, {"measurement": "Latency to the first gen. clonus (% of control)", "setting": "50 mg/kg i.p. 45 min before PTZ 87 mg/kg s.c., vehicle 6.77 ± 2.23 min", "result": "205.5 ± 35.2", "unit": "%"}, {"measurement": "latency to the onset of the first clonic seizures at higher doses", "result": "tended to increase the latency"}]}
{"smiles": "O=C(NCC1(N2CCN(c3ccccc3)CC2)CCOCC1)c1cccnc1Sc1ccccc1", "note": "[JNJ-47965567, N-[[4-(4-phenyl-piperazin-1-yl)tetrahydro-2H-pyran-4-yl]-methyl]-2-(phenyl-thio) nicotinamide]", "values": [{"measurement": "# of mice/ with seizure", "setting": "[11]", "result": "12/12"}, {"measurement": "# of mice/ with seizure", "setting": "[12]", "result": "12/10"}, {"measurement": "Cases of death (within 30 min)", "setting": "[11]", "result": 2}, {"measurement": "Cases of death (within 30 min)", "setting": "[12]", "result": 1}, {"measurement": "Cases of death (within 30 min)", "setting": "[2]", "result": 3}, {"measurement": "Cases of death (within 30 min)", "setting": "[3]", "result": 1}, {"measurement": "Latency to the first gen. Clonus", "setting": "[11]", "result": "7.31 ± 2.19", "unit": "min"}, {"measurement": "Latency to the first gen. clonus (% of control)", "setting": "15 mg/kg i.p. 30 min before PTZ 87 mg/kg s.c., vehicle 6.94 ± 1.31 min", "result": "105.3 ± 31.6", "unit": "%"}, {"measurement": "Latency to the first gen. Clonus", "setting": "[12]", "result": "13.66 ± 2.94", "unit": "min"}, {"measurement": "Latency to the first gen. clonus (% of control)", "setting": "30 mg/kg i.p. 30 min before PTZ 87 mg/kg s.c., vehicle 7.13 ± 1.49 min", "result": "191.6 ± 41.2", "unit": "%"}, {"measurement": "latency to the onset of the first clonic seizures at higher doses", "result": "tended to increase the latency"}, {"measurement": "Latency to the first gen. Clonus (% control)", "setting": "[6]", "result": "109.4 ± 25.1", "unit": "%"}, {"measurement": "Latency to the first gen. Clonus", "setting": "[7]", "result": "5.19 ± 1.19", "unit": "min"}, {"measurement": "Latency to the first gen. Clonus (% control)", "setting": "[8]", "result": "153.4 ± 47.1", "unit": "%"}, {"measurement": "Latency to the first gen. Clonus", "setting": "[9]", "result": "9.42 ± 2.89", "unit": "min"}, {"measurement": "# of mice/ with seizures", "setting": "[7]", "result": "12/12"}, {"measurement": "# of mice/ with seizures", "setting": "[9]", "result": "12/10"}]}
